# Test results taken from ChEMBL document CHEMBL1150027, “Apigenin-7-O--D-glucopyranoside, an anti-HIV principle from Kummerowia striata” (Bioorg Med Chem Lett, 1994).
# Columns and labels:
# [1] = Ratio of IC50 to EC50 was expressed as therapeutic index; details: read-out: TI
# H9 [2] = assay: Inhibitory activity against H9 cells uninfected with HIV-1; assay type: functional, cell-based; details: Homo sapiens
# H9 [3] = assay: Inhibitory activity against HIV-1 IIIB replication in H9 cell line; assay type: functional, cell-based; details: Homo sapiens
EC50 (H9 [3]) [µg/mL],SMILES,selectivity ratio [1],IC50 (H9 [2]) [µg/mL]
80,O=c1c(O[C@@H]2O[C@H](CO)[C@@H](O)[C@H](O)[C@H]2O)c(-c2ccc(O)cc2)oc2cc(O)cc(O)c12 [ASTRAGALIN],< 1.25,< 100
1.8,O=c1cc(-c2ccc(O)cc2)oc2cc(O[C@@H]3O[C@H](CO)[C@@H](O)[C@H](O)[C@H]3O)cc(O)c12 [APIGETRIN],> 55.6,> 100
9,O=c1cc(-c2ccc(O)cc2)oc2cc(O)cc(O)c12 [APIGENIN],4,35

SMILES,EC50 (H9 [3]) [µg/mL],selectivity ratio [1],IC50 (H9 [2]) [µg/mL]
O=c1c(O)c(-c2ccc(O)c(O)c2)oc2cc(O)cc(O)c12 [QUERCETIN],1.6,< 2.5,< 4
